Source: patent US20250313593A1, “DIPEPTIDE DERIVATIVE COMPOSITION, PREPARATION METHOD THEREFOR, AND USE THEREOF” (BEIJING CONTINENT PHARMACEUTICALS CO., LTD, priority 2022, published 2025)
“Also recorded” adds a separate entry of the source.

Experiments:
[1] = tested on: cells; conditions: background; cited from earlier work
[2] = tested on: liver failure; conditions: background; CN201110025509.8 and CN201110025516.8; cited from earlier work
[3] = Screening injection solvents for F573 (solvent effects, dissolution behavior); type: physicochemical; conditions: 2 ml:30 mg F573
Source text: 1.1 for the Purpose of Preparing F573 Injection, Screening Injection Solvents

[4] = Stability of F573 solution before and after high-temperature sterilization; type: physicochemical; conditions: for Content / Related substances: propylene glycol/water (80%/20%), pH 4.0-5.0
Procedure: 1.2 Investigation of Stability of F573 Injection
F573 was dissolved in the solution of propylene glycol/water (80%/20%; pH was adjusted to 4.0-5.0), and the resulting mixture was sterilized at a high temperature of 120° C. for 15 min and then examined (the results are shown in Table A-2 below).

[5] = After sterilization at 120° C. for 15 min
[6] = after the high-temperature sterilization

Dissolution behavior ([3]; Ethanol/water (10%/90%)): Turbid
Dissolution behavior ([3]; Oil for injection, Vegetable oil): Turbid
Dissolution behavior ([3]; Propylene glycol/water (50%/50%)): Turbid
Dissolution behavior ([3]; Water for injection, adjusting pH to 2.0-2.5): Turbid
Dissolution behavior ([3]; Water for injection, adjusting pH to 4.0-5.0): Turbid
Content [4, 5]: 8.82 mg/mL
Related substances [4, 5]: 47.22%
Content ([4]; Before sterilization): 16.08 mg/mL
Related substances ([4]; Before sterilization): 1.80%
Increase in the related substances [4, 6]: about 50%
Reduction in the F573 content [4, 6]: about 50%
Stability in aqueous solution ([4]; aqueous solution, moist heat sterilization): poor stability
Structure (SMILES): CC(C)[C@H](NC(=O)OCc1ccccc1)C(=O)NC(CC(=O)O)C(=O)CF (stereo partly drawn) [F573, 3-(2-benzyloxycarbonylamino-3-methyl-butanamido)-5-fluoro-4-oxo-pentanoic acid]
Toxicity on cells [1]: no significant toxicity on cells
Efficacy on liver failure [2]: remarkable efficacy on liver failure
Dissolution behavior ([3]; Propylene glycol/water (80%/20%), adjusting pH to 4.0-5.0): completely dissolved; also recorded: Clarified
